Measured values published in patent publication US10821115B2, “Compounds that inhibit Mcl-1 protein” (priority 2017, dated 2020).
Where two headings read alike, the source gives them in different places.

Tests used:
[1] = target: recombinant human Mcl-1 (residues 171-327) / Bim interaction (Homo sapiens (Human), UniProt Q07820); experiment: biochemical; format: binding; conditions: read-out: Mcl-1 HTRF IC50
[2] = test system: human multiple myeloma cell line, OPM-2; experiment: Cell viability assay (OPM-2 10 FBS), CellTiter-Glo; format: cell-based
Procedure, shortened: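 3000 cells/well, RPMI 1640 + 10% FBS; serial compound dilutions, 16 h, 37 °C/5% CO2.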

[3] = TR-FRET, Mcl-1(171-327) / biotin-Bim (51-76)
[4] = Homo sapiens, OPM-2, 16 h, read-out: OPM-2 10% FBS IC50 IP, OPM-2 cells, 10% FBS, 16 h, CellTiter-Glo
[5] = 0.1 nM Mcl-1(171-327), 0.05 nM biotin-Bim (51-76)
[6] = read-out: OPM-2 10% FBS IC50 IP, OPM-2 cells, 10% FBS, 16 h incubation
[7] = Homo sapiens, OPM-2, 16 h, read-out: OPM-2 10% FBS IC50 IP, OPM-2 cells, 10% FBS, 16 h incubation

recombinant human Mcl-1 (residues 171-327) / Bim interaction, sequence (Q07820 171-327): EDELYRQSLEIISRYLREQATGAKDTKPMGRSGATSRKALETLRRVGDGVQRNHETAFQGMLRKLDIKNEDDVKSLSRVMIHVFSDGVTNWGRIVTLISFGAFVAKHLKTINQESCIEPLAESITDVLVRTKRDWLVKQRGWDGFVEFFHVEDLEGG

COCC[C@@H]1[C@@H](C)C/C=C/[C@@](O)(C2SCCCS2)[C@@H]2CC[C@H]2CN2C[C@@]3(CCCc4cc(Cl)ccc43)COc3ccc(cc32)C(=O)NS1(=O)=O [Example 100513, (1S,3′R,6′R,7′S,8′E,11′S,12′R)-6-chloro-7′-(1,3-dithian-2-yl)-7′-hydroxy-12′-(2-methoxyethyl)-11′-methyl-3,4-dihydro-2H,15′H-spiro[naphthalene-1,22′-[20]oxa[13]thia[1,14]diazatetracyclo [14.7.2.0~3,6~.0~19,24~]pentacosa[8,16,18,24]tetraen]-15′-one 13′,13′-dioxide]
IC50 [1, 3]: 0.071 nM
IC50 [2, 4]: 288 nM

C[C@@H]1[C@@H](C)C[C@@H]2C=CC[C@](O)(C2)[C@@H]2CC[C@H]2CN2C[C@@]3(CCCc4cc(Cl)ccc43)COc3ccc(cc32)C(=O)NS1(=O)=O [Example 100056, (1S,3′R,6′R,7′S,11′S,13′S,14′R)-6-chloro-7′-hydroxy-13′,14′-dimethyl-3,4-dihydro-2H,17′H-spiro[naphthalene-1,24′-[22]oxa[15]thia[1,16]diazapentacyclo [16.7.2.1~7,11~.0~3,6~.0~21,26~]octacosa [9,18,20,26]tetraen]-17′-one 15′,15′-dioxide]
IC50 [1, 3]: 0.424 nM
IC50 [2, 4]: 1680 nM

CNC(=O)C[C@@]1(O)CCC[C@H](C)[C@@H](C)S(=O)(=O)NC(=O)c2ccc3c(c2)N(C[C@@H]2CC[C@H]21)C[C@@]1(CCCc2cc(Cl)ccc21)CO3 (single isomer, unassigned) [Example 100103]
IC50 [1, 3]: 0.325 nM
IC50 [2, 4]: 778 nM

C[C@@H]1[C@@H](C)CCC[C@@]2(CC(N(C)C)=NO2)[C@@H]2CC[C@H]2CN2C[C@@]3(CCCc4cc(Cl)ccc43)COc3ccc(cc32)C(=O)NS1(=O)=O [Example 100197, (1S,3′R,6′R,7′R,11′S,12′R)-6-chloro-3″- (dimethylamino)-11′,12′-dimethyl-3,4-dihydro-2H,4″H,15′H-dispiro[naphthalene-1,22′-[20]oxa[13]thia[1,14]diazatetracyclo [14.7.2.0~3,6~.0~19,24~]pentacosa[16,18,24]triene-7′,5″-[1,2]oxazol]-15′-one 13′,13′-dioxide]
IC50 [1, 3]: 0.774 nM
IC50 [2, 4]: 2460 nM

CO[C@@]1(CN2CCN3CCN(C(=O)CCS(=O)(=O)c4ccccc4)C[C@H]3C2)/C=C/C[C@H](C)[C@@H](C)S(=O)(=O)NC(=O)c2ccc3c(c2)N(C[C@@H]2CC[C@H]21)C[C@@]1(CCCc2cc(Cl)ccc21)CO3 (single isomer, unassigned) [Example 295]
IC50 [1, 5]: 0.321 nM
IC50 [2, 6]: 104 nM

C[C@@H]1[C@@H](C)CCC[C@@]2(COC(=O)O2)[C@@H]2CC[C@H]2CN2C[C@@]3(CCCc4cc(Cl)ccc43)COc3ccc(cc32)C(=O)NS1(=O)=O [Example 100054, (3′R,4S,6′R,11′S,12′R,22′S)-6″-chloro-11′,12′-dimethyl-3″,4″-dihydro-2″H,15′H-dispiro[1,3-dioxolane-4,7′-[20]oxa[13]thia[1,14]diazatetracyclo [14.7.2.0~3,6~.0~19,24~]pentacosa[16,18,24]triene-22′,1″-naphthalene]-2,15′-dione 13′,13′-dioxide]
IC50 [1, 3]: 4.11 nM
IC50 [2, 4]: 9060 nM

C[C@@H]1[C@@H](C)CCC[C@@](O)(C#CCN2CCOCC2)[C@@H]2CC[C@H]2CN2C[C@@]3(CCCc4cc(Cl)ccc43)COc3ccc(cc32)C(=O)NS1(=O)=O [Example 100354, (1S,3′R,6′R,7′S,11′S,12′R)-6-chloro-7′-hydroxy-11′,12′-dimethyl-7′-(3-(4-morpholinyl)-1-propyn-1-yl)-3,4-dihydro-2H,15′H-spiro[naphthalene-1,22′-[20]oxa[13]thia[1,14]diazatetracyclo [14.7.2.0~3,6~.0~19,24~]pentacosa[16,18,24]trien]-15′-one 13′,13′-dioxide]
IC50 [1, 3]: 0.109 nM
IC50 [2, 4]: 147 nM

COC(OC)c1cncc([C@]2(OC)/C=C/C[C@H](C)[C@@H](C)S(=O)(=O)NC(=O)c3ccc4c(c3)N(C[C@@H]3CC[C@H]32)C[C@@]2(CCCc3cc(Cl)ccc32)CO4)c1 (single isomer, unassigned) [Example 100514]
IC50 [1, 3]: 0.088 nM
IC50 [2, 4]: 231 nM

COCC[C@@H]1[C@@H](C)C/C=C/[C@](CN2CCN3CCOC[C@@H]3C2)(OC)[C@@H]2CC[C@H]2CN2C[C@@]3(CCCc4cc(Cl)ccc43)COc3ccc(cc32)C(=O)NS1(=O)=O [Example 179, (1S,3′R,6′R,7′S,8′E,11′S,12′R)-6-chloro-7′-((9aS)-hexahydropyrazino[2,1-c][1,4]oxazin-8(1H)-ylmethyl)-7′-methoxy-12′-(2-methoxyethyl)-11′-methyl-3,4-dihydro-2H,15′H-spiro[naphthalene-1,22′-[20]oxa[13]thia[1,14]diazatetracyclo [14.7.2.0~3,6~.0~19,24~]pentacosa[8,16,18,24]tetraen]-15′-one 13′,13′-dioxide]
IC50 [1, 5]: 0.072 nM
IC50 [2, 7]: 36 nM

CO[C@@]1(CN2CCN3C[C@@H](C)OC[C@@H]3C2)/C=C/C[C@H](C)[C@@H](C)S(=O)(=O)NC(=O)c2ccc3c(c2)N(C[C@@H]2CC[C@H]21)C[C@@]1(CCCc2cc(Cl)ccc21)CO3 [Example 147, (1S,3′R,6′R,7′S,8′E,11′S,12′R)-6-chloro-7′-methoxy-11′,12′-dimethyl-7′-(((3R,9aS)-3-methylhexahydropyrazino[2,1-c][1,4]oxazin-8(1H)-yl)methyl)-3,4-dihydro-2H,15′H-spiro[naphthalene-1,22′-[20]oxa[13]thia[1,14]diazatetracyclo [14.7.2.0~3,6~.0~19,24~]pentacosa[8,16,18,24]tetraen]-15′-one 13′,13′-dioxide]
IC50 [1, 5]: 0.376 nM
IC50 [2, 7]: 157 nM

COC(OC)c1cncc([C@@]2(O)/C=C/C[C@H](C)[C@@H](C)S(=O)(=O)NC(=O)c3ccc4c(c3)N(C[C@@H]3CC[C@H]32)C[C@@]2(CCCc3cc(Cl)ccc32)CO4)c1 (single isomer, unassigned) [Example 100507]
IC50 [1, 3]: 0.43 nM
IC50 [2, 4]: 490 nM

CO[C@]1(CN(C)CCN2CCOCC2)/C=C/C[C@H](C)[C@@H](C)S(=O)(=O)NC(=O)c2ccc3c(c2)N(C[C@@H]2CC[C@H]21)C[C@@]1(CCCc2cc(Cl)ccc21)CO3 [Example 37, (1S,3′R,6′R,7′R,8′E,11′S,12′R)-6-chloro-7′-methoxy-11′,12′-dimethyl-7′-((methyl(2-(4-morpholinyl)ethyl)amino)methyl)-3,4-dihydro-2H,15′H-spiro[naphthalene-1,22′-[20]oxa[13]thia[1,14]diazatetracyclo [14.7.2.0~3,6~.0~19,24~]pentacosa[8,16,18,24]tetraen]-15′-one 13′,13′-dioxide]
IC50 [1, 5]: 0.615 nM
IC50 [2, 7]: 643 nM

CO[C@@]1(CN2CCN3CCN(C(C)C)C[C@@H]3C2)/C=C/C[C@H](C)[C@@H](C)S(=O)(=O)NC(=O)c2ccc3c(c2)N(C[C@@H]2CC[C@H]21)C[C@@]1(CCCc2cc(Cl)ccc21)CO3 (single isomer, unassigned) [Example 241]
IC50 [1, 5]: 0.15 nM
IC50 [2, 6]: 137 nM

C[C@@H]1[C@@H](C)C/C=C/[C@](O)(c2cccnc2F)[C@@H]2CC[C@H]2CN2C[C@@]3(CCCc4cc(Cl)ccc43)COc3ccc(cc32)C(=O)NS1(=O)=O (single isomer, unassigned) [Example 100313]
IC50 [1, 3]: 0.129 nM
IC50 ([2]; read-out: OPM-2 10% FBS IC50 IP, OPM-2 cells, 10% FBS, 16 h, CellTiter-Glo): 143 nM
